The record followed here is US6642365B1, “Anti-(retro)viral conjugates of saccharides and acetamidino or guanidino compounds” (Yeda Research and Development Co. Ltd., priority 2001, dated 2003).

One test relates to HIV-1 Ba-L. In words: Anti-HIV assay, β-galactosidase activity in P4-CCR5 MAGI cells. Type of test: cell-based. How it is done:
(§1) The HIV-1 strains NL4-3 and Ba-L and the CD4^+lymphocytic cell lines SUP-T1, MT-4 and MT-2 and P4-CCR5 MAGI cells were obtained from the MRC AIDS reagent program or the NIH, AIDS Research and Reference Reagent Program.
(§2) The cells were infected by incubation with different titers of the HIV-1 strains for 2 hrs at 37° C. in the presence or absence of the AAC of the invention. Then the cells were washed from the virus by centrifugation at 400 g and the supernatants were discarded. The cells were resuspended in culture medium, supplemented with different concentrations of the test compounds. The cells were allowed to proliferate for 5 days, the number of viable cells was quantified by a tetrazolium-based colorimetric method (CellTiter 96® AQueous One solution Cell Proliferation Assay, Promega). Anti-HIV activity in P4-CCR5 MAGI cells was done as follows: cells (1×10^5/ml) were infected with 10 ng/ml of p24 antigen of HIV-1 Ba-L in the presence of varying concentrations of the test compound. 24 hours post infection, cells were washed twice with PBS and resuspended in the medium containing the appropriate drug concentration. Five days after infection the cells were washed with PBS and evaluated for β-galactosidase activity.

In test [1] the test system is HIV-1 NL4-3. In words: Virus-binding assay, p24 antigen bound to MT-4 cells. To be noted: 1 hour at 37° C.; dose dependent. Format: cell-based. How it is done:
MT4 cells (5×10^5) were incubated with supernatant containing 1×10^5 pg of p24 antigen of wild type HIV-1 in the presence of different concentrations of the test compound. One hour after infection, cells were washed 3 times with PBS and p24 antigen bound to the cells was determined by a commercial ELISA test (Coulter, Spain).

For test [2], the system named is HIV-1 AZT-resistant clinical isolate AOM. In words: Anti-HIV assay, MTT. Format: cell-based.
Test [3] has as its system TAR RNA. In words: Gel-shift binding to TAR RNA. Also on record: species or system HIV-1. To be noted: for Kd: CD50 normalized to the reported conditions (Calnan et al., 1991 b), read-out: apparent Kd; for effect of ten-fold excess of yeast tRNA on complex formation with TAR: ten-fold excess of tRNA (100 ng per lane).
Test [4] deals with HIV-1 NL4-3 AMD3100-resistant. Format: cell-based. To be noted: for cross-resistance of NL4-3 AMD3100-resistant virus: relative to NL4-3.
Test [5] deals with HIV-1 NL4-3. Briefly: Anti-HIV assay, MTT, MT-4 cells. Format: cell-based. How it is done:
as §1, §2

Another test relates to HIV-1 RF. In words: Anti-HIV assay, MTT. Format: cell-based.
For test [6], the system named is TAR RNA. Briefly: RNase A footprinting of TAR RNA. Particulars: 1 μM TAR, 200 pM RNase A. Format: binding, HIV-1. How it is done:
In a typical experiment 10 μl of 5 mM cacodylate buffer pH 6.5, containing 25 mM KCl and 50-100 ng 5′ ^32P-labeled TAR RNA (approximately 0.5-1 μM) were incubated with 200 pM RNase A (Sigma) at room temperature for 10 minutes in the presence of Tat R52 and the conjugates of the invention at various concentrations. In the competition experiments, the mixture was supplemented with 0.5 μg yeast tRNA (Sigma). After the incubation, 10 μl of formamide/bromphenol blue loading buffer was added to the samples. The samples were heated to 80° C. for 2 min and were resolved by electrophoresis on 40 cm×0.8 mm 20% polyacrylamide denaturing gel (7M urea) for 3 hours at 55° C. The results were visualized by a phosphoimager as described above and quantitated using ImageQuant software.
TAR RNA and RNase A concentrations were established by co-titration. To produce a “single-hit” kinetics conditions, 1 μM TAR versus 200 pM RNase A were selected. Tat R52 and AAC concentrations were determined by titration. […] RNase A cleaved TAR RNA in an uneven manner (FIG. 4A., lane 2). The most susceptible regions for cleavage were the single-stranded loop, nucleotides U31-G34 as well as C24 and U25 of the bulge. Strong cleavage was also observed at G21-G41 and A20-U42 pairs (lower stem). Binding of R52 (2-4 μM) caused a weakening of the bands in the upper stem region, (G26-C39, A27-C38, as well as U40) (FIG. 4A., lanes 3, 4). At 4 μM R52, the cleavage at G34 (loop) was enhanced, as well as a certain enhancement of bands A20, G21, U23 and U25 was observed. Remarkably, the band corresponding to the R52-TAR complex still was observed on the gels even after electrophoresis under strongly denaturing conditions. In the presence of R4K (10-20 μM), the upper stem (G26-C29), the lower stem and the bulge (G21-U23, partially C24 and U25) were protected as well as C38, C39 and U40. Cleavage at C19 and A20 of the lower stem and C30, G33 and G34 of the loop was enhanced by 10 μM R4K, whereas with 20 μM R4K the protection of C30, G34 and A20-G21 was observed (FIG. 4A., lanes 5, 6). […] Cleavages at C19-A20 in the lower stem as well as at G30 and G34 in the loop were observed (FIG. 4A., lanes 7, 8). In the presence of GB4K (20 μM) no significant protection was observed.

Where [7] appears, read: MTT assay, read-out: EC50 HIV-1 RF.

Where two headings read alike, the source gives them in different places.

As a reminder, the EC50 is the midpoint of the concentration-response curve. As for `N=C(N)NCCCC(N)C(=O)NCC1OC(OC2C(NC(=O)C(N)CCCNC(=N)N)CC(NC(=O)C(N)CCCNC(=N)N)C(OC3OC(CO)C(O)C(NC(=O)C(N)CCCNC(=N)N)C3O)C2O)C(O)C(O)C1O` (centres unmarked) [R4K, Tetraargininamido-kanamycin A conjugate], the concentration for a half-maximal effect (EC50) was > 113 µM with HIV-1 Ba-L, 67 µM in test [2], 31 µM with HIV-1 NL4-3 [5] and > 113 µM with HIV-1 RF (setting [7]). Also, the “binding of HIV-1 NL4-3 to MT-4 cells” value in the test with HIV-1 NL4-3 [1] is on record as “inhibit the binding”. Moreover, the CD50 in the test with TAR RNA [3] (12 nM 32P-labeled TAR) stood at 2500 nM; in the test with TAR RNA [3] (50% binding, TAR RNA 12 nM), 2500 nM. Further, the Kd at TAR RNA [3] is 0.416 µM. Besides, the “effect of ten-fold excess of yeast tRNA on complex formation with TAR” value in the test with TAR RNA [3] is given as “do not inhibit the binding”. The “cross-resistance of NL4-3 AMD3100-resistant virus” value in test [4] is reported as > 4 fold. For the same molecule, in the test with TAR RNA [6], the “concentration giving effective protection of TAR” value amounted to 10 µM.

Take “Triargininamido-gentamicin conjugate [R3G]”: the EC50 was 29 µM in the test with HIV-1 Ba-L; 16 µM in test [2]; > 133 µM in test [4] (MTT assay, read-out: EC50 HIV-1 AMD 3100res); 15 µM in the test on HIV-1 NL4-3 [5]; 35 µM with HIV-1 RF (setting [7]); 16 to 35 µM in the test with HIV-1 RF (range over HIV-1 RF strain, AOM clinical isolate and M-tropic Ba-L strain, read-out: EC50). Moreover, in the test on HIV-1 NL4-3 [1], the “binding of HIV-1 NL4-3 to MT-4 cells” value is on record as “inhibit the binding”. Further, the CD50 in the test on TAR RNA [3] (50% binding, TAR RNA 12 nM) is reported as ~500 nM. For the same molecule, at TAR RNA [3], the Kd worked out at 0.083 µM. Moreover, the “effect of ten-fold excess of yeast tRNA on complex formation with TAR” value in the test on TAR RNA [3] is given as “do not inhibit the binding”. In test [4], the “cross-resistance of NL4-3 AMD3100-resistant virus” value was > 9 fold. For the same molecule, the “concentration giving effective protection of TAR” value in the test with TAR RNA [6] is 4 µM.
